Experimental data: article PMC12974487, “Inhibition of FicD-mediated AMPylation and deAMPylation by isoprenoid diphosphates” (Proceedings of the National Academy of Sciences of the …, 2026)
Positions count from the first letter of the chain named.

Experiments:
Format in all cases: binding
FicD^H363A = target: T1, FicD^H363A (Homo sapiens, UniProt Q9BVA6, H363A); assay: MIDAS metabolite screen, FicD^H363A; details: cutoff Q < 0.05 and |Log2 corrected fold change| > 2, metabolites 5 µM
T1 construct: soluble ER luminal domain (residues 105 to 458) of wild-type human FicD and three mutants; 6xHis-Sumo (N, cleaved yes); made in house; host or cells: Rosetta(DE3) E. coli
T1 sequence (Q9BVA6 105-458 H363A): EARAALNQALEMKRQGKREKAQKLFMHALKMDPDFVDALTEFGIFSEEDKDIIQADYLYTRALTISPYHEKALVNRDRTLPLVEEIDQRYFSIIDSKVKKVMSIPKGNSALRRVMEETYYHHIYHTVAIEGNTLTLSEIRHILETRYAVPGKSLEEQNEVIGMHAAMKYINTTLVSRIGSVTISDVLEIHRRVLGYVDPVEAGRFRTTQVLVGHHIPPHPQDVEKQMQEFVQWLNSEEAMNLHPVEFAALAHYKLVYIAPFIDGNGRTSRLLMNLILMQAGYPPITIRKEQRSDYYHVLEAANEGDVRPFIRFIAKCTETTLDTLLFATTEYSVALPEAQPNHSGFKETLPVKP
Source text: (§1) To identify small-molecule metabolite interactions with FicD, we applied an unbiased high-throughput screening approach known as MIDAS ([44]). Given the high concentrations of protein required for MIDAS screening, we purified the soluble ER luminal domain (residues 105 to 458) of wild-type human FicD and three mutants FicD^E234G, FicD^L258D, and FicD^H363A for screening (Fig. 1A). These mutants were selected based on their well-established biochemical features ([23], [24], [31]). All three are predicted to enhance detection of protein–metabolite interactions (PMIs) relative to FicD^WT through increased affinity for nucleotide substrates (FicD^E234G), improved solubility (FicD^L258D), and loss of catalytic turnover (FicD^H363A) (Fig. 1A). To decrease the potential for nonspecific small-molecule binding, we ensured the purity of our FicD proteins (SI Appendix, Fig. S1 A and B). As reported by other investigators ([24], [31]), we observe an increase in elution volume of the FicD^L258D mutant, consistent with its monomerization (SI Appendix, Fig. S1C).
(§2) Out of the 602 naturally occurring human metabolites in the MIDAS library, we applied a significance cutoff (q value < 0.05) to identify 12 PMIs with a Log2 (corrected fold change) of >2 and two PMIs with a Log2 (corrected fold change) <-2 in the FicD^WT screen (Fig. 1B and SI Appendix, Table S2). Hits were additionally triaged based on detection of multiple adducts of the metabolite in a single dataset (FPP and […] in Fig. 1B) and identification of the same metabolites across three or more of the FicD construct screens (Fig. 1C). Three chemical classes passed this initial triage: adenosine nucleotides, isoprenoid diphosphates, and thyroid hormone intermediates (Fig. 1 B and C and SI Appendix, Tables S2–S5).
(§3) 22°C. Induced cultures were then harvested by centrifugation at 8000G for 15 minutes at 4°C and […]
(§4) Bacterial pellets were resuspended in 30-50mL of 50mM Tris pH 7.4/150mM NaCl/10% glycerol with one Roche cOmplete EDTA-Free Protease inhibitor cocktail tablet (cat no. COEDTAF-RO).
(§5) Triton-X100 to a final concentration of 0.2%, Chicken-egg lysozyme to a final concentration of 0.4ug/mL, and 2-5uL of Millipore Benzonase Nuclease (cat no. 70664) were added to bacterial suspension prior to sonication at 40-50% amplitude for 1-3 minutes in pulses of 5 seconds on and 30 seconds off on ice with a Sonics VCX 750 Ultrasonicator. Bacterial lysate was then clarified by centrifugation at 30,000 x g for 30 minutes at 4°C.
Clarified lysate was rotated with Qiagen NiNTA agarose beads (cat no. 30210) for 1-2 hours at 4°C. […]

BiP = target: T2, BiP (Homo sapiens, UniProt P11021, T229A); assay: DSF specificity control with BiP; details: same increasing metabolite concentrations
T2 construct: BiPT229A (residues 27-654) was expressed as an 6xHis-Thrombin-T7 n-terminal fusion; 6xHis-Thrombin-T7 (N); made in house; host or cells: Rosetta(DE3) E. coli
T2 sequence (P11021 27-654 T229A): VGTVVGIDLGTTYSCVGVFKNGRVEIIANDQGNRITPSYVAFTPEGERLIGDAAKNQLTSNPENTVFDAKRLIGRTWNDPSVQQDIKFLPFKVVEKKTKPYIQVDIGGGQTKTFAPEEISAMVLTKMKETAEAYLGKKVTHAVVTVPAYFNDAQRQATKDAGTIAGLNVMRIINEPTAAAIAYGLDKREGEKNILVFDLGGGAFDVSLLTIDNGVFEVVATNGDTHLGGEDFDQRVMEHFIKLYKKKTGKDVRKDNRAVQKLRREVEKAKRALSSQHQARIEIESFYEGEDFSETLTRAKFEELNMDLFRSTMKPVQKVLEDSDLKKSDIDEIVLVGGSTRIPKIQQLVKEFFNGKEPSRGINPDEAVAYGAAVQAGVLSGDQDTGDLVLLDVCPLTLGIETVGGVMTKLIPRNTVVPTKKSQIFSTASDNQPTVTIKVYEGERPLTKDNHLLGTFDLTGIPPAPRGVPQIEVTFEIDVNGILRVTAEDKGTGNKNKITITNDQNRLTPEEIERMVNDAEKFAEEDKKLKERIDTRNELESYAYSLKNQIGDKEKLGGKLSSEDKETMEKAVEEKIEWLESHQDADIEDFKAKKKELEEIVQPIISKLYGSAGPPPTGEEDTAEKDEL

FicD^L258D = target: T3, FicD^L258D (Homo sapiens, UniProt Q9BVA6, L258D); assay: MIDAS metabolite screen, FicD^L258D; details: cutoff Q < 0.05 and |Log2 corrected fold change| > 2, metabolites 5 µM
T3 construct: soluble ER luminal domain (residues 105 to 458) of wild-type human FicD and three mutants; 6xHis-Sumo (N, cleaved yes); made in house; host or cells: Rosetta(DE3) E. coli
T3 sequence (Q9BVA6 105-458 L258D): T1 sequence (Q9BVA6 105-458 H363A) with L154D, A259H
Source text: as §1, §2, §3, §4, §5
Clarified lysate was rotated with Qiagen NiNTA agarose beads (cat no. 30210) for 1-2 hours at 4°C. The beads were then transferred to a 15mL conical vial, resuspended in 10-15mL wash buffer (50mM Tris pH 7.4/150mM NaCl/10% glycerol/0.2% Triton-X 100/10mM imidazole), and spun down at 1000G for 1 minute at 4°C, after which the supernatant was aspirated from the beads. This washing step was repeated 2-4 times to rinse bacterial lysate from the beads prior to on-column washing. The beads were then transferred to BioRad Econopac 20mL bed volume column (cat no.
7321010) and washed with 10-15mL of wash buffer (repeated at least three times), 10mL of ATP wash (50mM Tris pH 7.4/300mM KCl/10mM MgCl2/500uM ATP, repeated once), and finally with 10-15mL wash buffer without Triton-X 100 (repeated at least three times). Protein was eluted in 500μL-1mL elution buffer (50mM Tris pH 7.5/150mM NaCl/10% glycerol/0.5% CHAPS). […]

Structure (SMILES)	MIDAS protein-metabolite interaction (enrichment/depletion) (FicD^H363A)	change in melt curves or Tm of BiP (BiP)	MIDAS protein-metabolite interaction (enrichment/depletion) (FicD^L258D)
Nc1ncnc2c1ncn2[C@@H]1O[C@H](COP(=O)(O)OP(=O)(O)O)[C@@H](O)[C@H]1O [ADP]	significantly enriched	–	–
CC(C)=CCC/C(C)=C/CC/C(C)=C/COP(=O)(O)OP(=O)(O)O [FPP, farnesyl-pyrophosphate]	significantly enriched	neither GPP nor FPP elicited a change	significantly enriched
CC(C)=CCC/C(C)=C/COP(=O)(O)OP(=O)(O)O [GPP, geranyl-pyrophosphate]	significantly enriched	neither GPP nor FPP elicited a change	significantly enriched
